From patent US9676780B2, “Piperazine-substituted [1,2,4]triazolo[1,5-C]quinazolin-5-amine compounds with A2A antagonist properties” (MERCK SHARP & DOHME CORP., priority 2012, dated 2017) come the findings set out here.

The assay addresses T1, human A2a receptor (Homo sapiens, UniProt P29274).
T1 construct: purchased Perkin-Elmer RBHA2AM400UA; host or cells: HEK293
Description: A2a receptor competition binding assay (Scintillation Proximity, tritiated radioligand). The settings on record: membranes from HEK293 cells expressing the human A2a receptor; 0.5 nM tritiated ligand; SPA beads; one hour at room temperature; read-out: A2a EC50. The method, then: Binding affinities of compounds of the invention for the human A2a receptor were determined in a competition binding assay using Scintillation Proximity technology. […] The beads were then allowed to settle to the bottom of the wells for 1 hr, after which the membrane-associated radioactivity was determined by scintillation counting in a TopCount microplate reader. Ki values were determined using the Cheng-Prusoff equation.
• HEK293 cells expressing the human, rat, dog or monkey adenosine 2a receptor (Purchased from Perkin-Elmer # RBHA2AM400UA). • The Tritiated compound was prepared in-house by MRL Radiochemistry according to published methods. • Wheatgerm agglutinin-coated yttrium silicate SPA beads (GE Healthcare #RPNQ0023). […] This is a 2.5× solution. The final concentration in the assay is 0.5 nM. Calculate the concentration by counting two 5 ul aliquots. Membrane Preparation • Use 0.25 ug of membrane/well. Dilute membranes to 9.7 ug/ml in assay buffer. Treat with 20 ug/ml adenosine deaminase (ADA) for 15 minutes at room temperature to degrade endogenous adenosine. Membrane-Bead Mixture • Use 100 ug/well wheatgerm agglutinin-coated yttrium silicate SPA beads. • Mix ADA-treated membranes and SPA beads together for 30 min prior to assay. […] Incubate for one hour at room temperature with agitation. • Include total binding (assay buffer+1% DMSO) and non-specific binding (CGS15943, 1 uM) wells. Counting • Allow the beads to settle for one hour. • Count in TopCount. Calculations • A curve fitting program (i.e., Prism, Activity Base, Chemcart) is used to determine the EC50.
The Ki value is calculated using the Cheng-Prusoff equation. Ki=EC50/(1+(radioligand concentration/Kd))
(In a scintillation proximity assay essentially only radioactivity close to the scintillant gives light.)

T1 sequence (P29274 whole entry): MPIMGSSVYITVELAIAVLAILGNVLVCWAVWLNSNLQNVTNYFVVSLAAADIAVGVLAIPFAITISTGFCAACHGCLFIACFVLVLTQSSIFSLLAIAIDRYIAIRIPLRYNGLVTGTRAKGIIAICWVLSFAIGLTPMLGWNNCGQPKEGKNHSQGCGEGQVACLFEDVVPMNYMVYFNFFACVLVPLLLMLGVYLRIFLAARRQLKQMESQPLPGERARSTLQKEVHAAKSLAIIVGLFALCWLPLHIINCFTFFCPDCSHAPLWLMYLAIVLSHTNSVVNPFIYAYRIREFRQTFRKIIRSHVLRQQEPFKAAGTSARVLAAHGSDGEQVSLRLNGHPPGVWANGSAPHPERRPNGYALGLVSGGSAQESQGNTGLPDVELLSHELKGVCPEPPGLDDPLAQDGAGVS

`COc1cccc2c1nc(N)n1nc(CN3CCN(C)CC3c3ccccc3)nc21` (centres unmarked) [Ex-3]: the EC50 (commonly the concentration giving half of the maximal effect) amounted to 0.19 µM.
As for `COc1cccc2c1nc(N)n1nc(CN3CC(C)N(c4ccccc4)CC3C)nc21` (centres unmarked) [Ex-8], the figure is 0.0213 µM.
As for `COc1cc(F)cc2c1nc(N)n1nc(CN3CCN(c4ccc(F)cc4)CC3C)nc21` (centres unmarked) [Ex-11], the figure is 0.00768 µM; as for `CCn1ccnc1CN1CCN(Cc2nc3c4cccc(OC)c4nc(N)n3n2)C(C)C1` (centres unmarked) [Ex-12], 0.088 µM.
Then `COc1cccc2c1nc(N)n1nc(CN3CCN(Cc4nc5ccncc5n4C)CC3C)nc21` (centres unmarked) [Ex-13], with 0.0871 µM; and `CCn1cncc1CN1CCN(Cc2nc3c4cccc(OC)c4nc(N)n3n2)C(C)C1` (centres unmarked) [Ex-14], with 0.0528 µM; and `COc1cccc2c1nc(N)n1nc(CN3CCN(Cc4c(C)nc5scnn45)CC3C)nc21` (centres unmarked) [Ex-15], with 0.0081 µM.
As to `COc1cccc2c1nc(N)n1nc(CN3CCN(Cc4ncco4)CC3C)nc21` (centres unmarked) [Ex-16], the EC50 was 0.0365 µM.
As for `COc1cccc2c1nc(N)n1nc(CN3CCN(Cc4nccs4)CC3C)nc21` (centres unmarked) [Ex-17], the figure is 0.0267 µM; as for `COc1cccc2c1nc(N)n1nc(CN3CCN(Cc4cccc(C)n4)CC3C)nc21` (centres unmarked) [Ex-18], 0.0269 µM; as for `COc1cccc2c1nc(N)n1nc(CN3CCN(Cc4ncccc4F)CC3C)nc21` (centres unmarked) [Ex-19], 0.0296 µM.
Then `COc1cc(CN2CCN(Cc3nc4c5cccc(OC)c5nc(N)n4n3)C(C)C2)cc(OC)c1` (centres unmarked) [Ex-20], with 0.0517 µM; and `COc1cccc2c1nc(N)n1nc(CN3CCN(Cc4ccc(F)cc4F)CC3C)nc21` (centres unmarked) [Ex-21], with 0.0203 µM.
With `COc1cccc2c1nc(N)n1nc(CN3CCN(Cc4cccc(Oc5ccccc5)c4)CC3C)nc21` (centres unmarked) [Ex-22], the EC50 is 0.01 µM.
For the molecule `COc1cccc2c1nc(N)n1nc(CN3CCN(Cc4ccc(F)c(F)c4)CC3C)nc21` (centres unmarked) [Ex-23], the EC50 came out at 0.0177 µM.
Then `COc1cccc2c1nc(N)n1nc(CN3CCN(Cc4c(F)cccc4F)CC3C)nc21` (centres unmarked) [Ex-24], with 0.0144 µM; and `COc1ccc(CN2CCN(Cc3nc4c5cccc(OC)c5nc(N)n4n3)C(C)C2)cc1F` (centres unmarked) [Ex-25], with 0.0345 µM; and `COc1cccc2c1nc(N)n1nc(CN3CCN(Cc4cc(F)cc(F)c4)CC3C)nc21` (centres unmarked) [Ex-26], with 0.0218 µM.
As for `COc1cccc2c1nc(N)n1nc(CN3CCN(Cc4cccc(Cl)c4F)CC3C)nc21` (centres unmarked) [Ex-27], the figure is 0.0068 µM; as for `COc1cccc2c1nc(N)n1nc(CN3CCN(Cc4ccc(F)c(C)c4)CC3C)nc21` (centres unmarked) [Ex-28], 0.0156 µM.
As for `COc1cccc2c1nc(N)n1nc(CN3CCN(Cc4ccc(F)c(F)c4F)CC3C)nc21` (centres unmarked) [Ex-29], the figure is 0.0186 µM; as for `COc1cccc2c1nc(N)n1nc(CN3CCN(Cc4cc(F)c(F)cc4F)CC3C)nc21` (centres unmarked) [Ex-30], 0.0092 µM.
`COc1cccc2c1nc(N)n1nc(CN3CCN(Cc4ccc(N5CCCC5)cc4)CC3C)nc21` (centres unmarked) [Ex-31]: the EC50 turned out to be 0.0491 µM.
For `COc1cccc2c1nc(N)n1nc(CN3CCN(Cc4ccc(N(C)C)cc4)CC3C)nc21` (centres unmarked) [Ex-32], the EC50 came to 0.0783 µM.
Then `COc1cccc2c1nc(N)n1nc(CN3CCN(Cc4ccc(N5CCCC5=O)cc4)CC3C)nc21` (centres unmarked) [Ex-33], with 0.0359 µM; and `COc1cccc2c1nc(N)n1nc(CN3CCN(c4ccc(Cl)cc4)C[C@@H]3C)nc21` [Ex-34], with 0.0185 µM.
For the molecule `COc1cccc2c1nc(N)n1nc(CN3CCN(c4ccc(Cl)cc4)C[C@H]3C)nc21` [Ex-35], the EC50 was 0.0037 µM.
Then `COc1cccc2c1nc(N)n1nc(CN3CCN(Cc4cc(C)ccc4C)CC3C)nc21` (centres unmarked) [Ex-36], with 0.0181 µM; and `COc1cc(F)cc2c1nc(N)n1nc(CN3CCN(c4ccc(F)cc4)CC3C)nc21` (centres unmarked) [Ex-37], with 0.0489 µM; and `COc1cccc2c1nc(N)n1nc(CN3CCN(c4ccc(C(F)(F)F)cn4)CC3C)nc21` (centres unmarked) [Ex-40], with 0.0226 µM.
Then `COc1cc(F)cc2c1nc(N)n1nc(CN3CCN(c4ccc(F)cn4)CC3C)nc21` (centres unmarked) [Ex-41], with 0.0181 µM; and `COc1cc(F)cc2c1nc(N)n1nc(CN3CCN(c4ccc(C(F)(F)F)cn4)CC3C)nc21` (centres unmarked) [Ex-42], with 0.0283 µM.
For the molecule `COc1cccc2c1nc(N)n1nc(CN3CCN(c4ccc(F)cc4)C[C@H]3C3CC3)nc21` [Ex-43], the EC50 came out at 0.00211 µM.
Then `COc1cccc2c1nc(N)n1nc(CN3CCN(c4ccc(F)cc4)C[C@H]3C(C)C)nc21` [Ex-44], with 0.0036 µM.
As for `CC[C@@H]1CN(c2ccc(F)cc2)CCN1Cc1nc2c3cccc(OC)c3nc(N)n2n1` [Ex-45], the figure is 0.0057 µM.
Then `CCC1CN(C(=O)c2ccc(F)cc2)CC(C)N1Cc1nc2c3cccc(OC)c3nc(N)n2n1` (centres unmarked) [Ex-46], with 0.0502 µM; and `COc1cccc2c1nc(N)n1nc(CN3CCN(c4ccccc4C(F)(F)F)CC3C)nc21` (centres unmarked) [Ex-47], with 0.0592 µM; and `COc1cccc2c1nc(N)n1nc(CN3CCN(c4ccc(C(F)(F)F)cc4)CC3C)nc21` (centres unmarked) [Ex-48], with 0.0182 µM.
`COc1cccc2c1nc(N)n1nc(C(C)N3CCN(c4ccc(F)cc4)CC3C)nc21` (centres unmarked) [Ex-49]: the EC50 stood at 0.0049 µM.
Then `COc1cccc2c1nc(N)n1nc(C(C)N3CCN(c4ccc(F)cc4)C[C@H]3C)nc21` (stereo partly drawn) [Ex-50, 2-{1-[(2R)-4-(4-fluorophenyl)-2-methylpiperazin-1-yl]ethyl}-7-methoxy[1,2,4]triazolo[1,5-c]quinazolin-5-amine], with 0.139 µM; and `COc1cccc2c1nc(N)n1nc(CN3CCN(c4nccs4)CC3C)nc21` (centres unmarked) [Ex-51], with 0.0738 µM.
As to `COc1cccc2c1nc(N)n1nc(CN3CCN(c4noc(C)n4)CC3C)nc21` (centres unmarked) [Ex-52], the concentration giving a half-maximal response (EC50) worked out at 0.0485 µM.
Then `COc1cccc2c1nc(N)n1nc(CN3CCN(c4noc(C5CC5)n4)CC3C)nc21` (centres unmarked) [Ex-53], with 0.0159 µM; and `COc1cccc2c1nc(N)n1nc(CN3CCN(c4nnn[nH]4)CC3C)nc21` (centres unmarked) [Ex-54], with 0.106 µM.
As for `COc1cccc2c1nc(N)n1nc(CN3CCN(c4cccc(C(F)(F)F)c4)C[C@H]3C)nc21` [Ex-55], the figure is 0.0052 µM; as for `COc1cccc2c1nc(N)n1nc(CN3CCN(c4ccccc4Cl)CC3C)nc21` (centres unmarked) [Ex-58], 0.0124 µM; as for `COc1cccc2c1nc(N)n1nc(CN3CCN(c4ccccc4C#N)CC3C)nc21` (centres unmarked) [Ex-59], 0.0309 µM.
Then `COc1cccc2c1nc(N)n1nc(CN3CCN(c4cccc(C#N)c4)CC3C)nc21` (centres unmarked) [Ex-60], with 0.0188 µM; and `COc1cccc2c1nc(N)n1nc(CN3CCN(c4ccc(C#N)cc4)CC3C)nc21` (centres unmarked) [Ex-61], with 0.0114 µM; and `COc1cccc2c1nc(N)n1nc(CN3CCN(c4ccc5ncccc5c4)CC3C)nc21` (centres unmarked) [Ex-63], with 0.00144 µM.
For the molecule `COc1cccc2c1nc(N)n1nc(CN3CCN(c4ccccc4C)CC3C)nc21` (centres unmarked) [Ex-64], the EC50 was determined as 0.0131 µM.
As for `COc1cccc2c1nc(N)n1nc(CN3CCN(c4cccc(C)c4)CC3C)nc21` (centres unmarked) [Ex-65], the figure is 0.007 µM.
For the molecule `COc1cccc2c1nc(N)n1nc(CN3CCN(c4ccc(C)cc4)CC3C)nc21` (centres unmarked) [Ex-66], the EC50 stood at 0.003 µM.
For the molecule `COc1cccc2c1nc(N)n1nc(CN3CCN(c4cccc5ccccc45)CC3C)nc21` (centres unmarked) [Ex-71], the EC50 was determined as 0.0115 µM.
Then `COc1cccc2c1nc(N)n1nc(CN3CCN(c4ccc5ccccc5c4)CC3C)nc21` (centres unmarked) [Ex-72], with 0.0067 µM; and `COc1cccc2c1nc(N)n1nc(CN3CCN(c4nnc(C)s4)CC3C)nc21` (centres unmarked) [Ex-74], with 0.0318 µM.
